Patent US20190015551A1, “CONSTRUCT FOR PREVENTING IMMUNOLOGICAL REJECTION GENERATED WHEN USED IN TRANSPLANTS, AND METHOD FOR USING COLLAGEN IN A GEL STATE, IN THE FORM OF DRY LYOPHILISED SPONGY MOULDINGS AND 3D MATRICES” (ADG I+D SPA, priority 2015, published 2019)

Tested on: bacterial colonies in pig tissue
Assay: Microbiological control of pig tissue treated with disinfectants (CFU/plate)
Format: cell-based
From the text: FIG. 3. It is shown the microbiological control of tissue for obtaining the collagen product, by means of the methodology described in the present application. It corresponds to CFU/plate in pig tissue treated with povidone-iodine or peracetic acid. […] Abbreviations: PY—povidone-iodine, PA—Peracetic Acid, CFU—colony forming units, CC—work bell control.
FIG. 4. It is shown results of microbiological control. The photographs of the culture plates show the initial growth of bacterial colonies at the beginning (time 0), and the decrease of CFU at 5 minutes, 30 minutes, 1 hour and 3 hours of exposure to the disinfectant; in the top panel povidone-iodine (PY) and in the lower panel peracetic acid (PA).
• i) Sterilization and freezing of the tissue: Pig's head cheeks skin from 175 to 190 days of age were used. Which was immersed for 3.5 hours in a commercial solution of povidone-iodine 10% (Brand: Centrovet) and brushed on both sides every 30 minutes, in a sterile environment, and rinsed with ultra-pure quality water. […] The disinfected tissue is bagged and sealed to freeze at −80° C. (±2.0° C.) in ultra freezer (Brand: Thermoline).

CC(=O)OO [PA, peracetic acid]
formation of bacterial colonies on culture plates (3 hours of exposure to the disinfectant): the presence of a colony still persists | UCF/plate in pig tissue treated with PY or PA (exposition time 0 min): 132 UCF/plate | UCF/plate in pig tissue treated with PY or PA (exposition time 5 min): 2 UCF/plate | UCF/plate in pig tissue treated with PY or PA (exposition time 30 min): 3 UCF/plate | UCF/plate in pig tissue treated with PY or PA (exposition time 1 hour): 7 UCF/plate | UCF/plate in pig tissue treated with PY or PA (exposition time 3 hours): 1 UCF/plate
